Measurements from US6339045B1, “N-(unsubstituted or substituted)-4-substituted-6-(unsubstituted or substituted)phenoxy-2-pyridinecarboxamides or thiocarboxamides, processes for producing the same, and herbicides” (Kureha Kagaku Kogyo Kabushiki Kaisha, priority 1995, dated 2002).

How the values were obtained:
Test in all cases: Herbicidal effect by foliage and soil treatment
Format in all cases: in vivo
Conditions in all cases: 10 g ai/10a, evaluated after 14 days
[1] = tested on: black nightshade (Solanum nigrum)
Method in brief: (§1)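 Potted seedlings at cotyledon-to-bifoliate stage were sprayed with compound in Tween 20/water at a predetermined rate and grown in a greenhouse at 19 to 25° C. Growth was rated against untreated plants after 14 days.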

[2] = tested on: sicklepod (Cassia obtusifolia)
Method in brief: as §1

[3] = tested on: velvetleaf (Abutilon theophrasti)
Method in brief: as §1

[4] = tested on: ivyleafspeedwell (Veronica hederaefolia)
Method in brief: as §1

[5] = tested on: kediock (Sinapis arvensis)
Method in brief: as §1

[6] = tested on: field bindweed (Convolvulus arvensis)
Method in brief: as §1

[7] = tested on: wild chamomile (Matricaria chamomilla)
Method in brief: as §1

[8] = tested on: redroot pigweed (Amaranthus retroflexus)
Method in brief: as §1

[9] = tested on: common blackjack (Bidens pilosa)
Method in brief: as §1

[10] = tested on: common chickweed (Stellaria media)
Method in brief: as §1

[11] = tested on: cleavers (Galium aparine)
Method in brief: as §1

For `COc1cc(Oc2cccc(C(F)(F)F)c2)nc(C(=O)NCCSCC(F)(F)F)c1` [Compound I-94], the “herbicidal activity rating, SN (Solanum nigrum)” value (“herbicidal activity rating, SN” below) [1] was 5 (percentage of weeds killed was not less than 80%), the “herbicidal activity rating, CO (Cassia obtusifolia)” value (from here on “herbicidal activity rating, CO”) [2] was 5 (percentage of weeds killed was not less than 80%) and the “herbicidal activity rating, AT (Abutilon theophrasti)” value [3] was 5 (percentage of weeds killed was not less than 80%). The “herbicidal activity rating, VH (Veronica hederaefolia)” value (shortened to “herbicidal activity rating, VH”) [4] was 5 (percentage of weeds killed was not less than 80%), the “herbicidal activity rating, SA (Sinapis arvensis)” value (shortened to “herbicidal activity rating, SA”) [5] was 5 (percentage of weeds killed was not less than 80%) and the “herbicidal activity rating, CA (Convolvulus arvensis)” value (from here on “herbicidal activity rating, CA”) [6] was 5 (percentage of weeds killed was not less than 80%). The “herbicidal activity rating, MC (Matricaria chamomilla)” value (“herbicidal activity rating, MC” for short) [7] was 4 (percentage of weeds killed was not less than 60% and less than 80%), the “herbicidal activity rating, AR (Amaranthus retroflexus)” value (from here on “herbicidal activity rating, AR”) [8] was 5 (percentage of weeds killed was not less than 80%) and the “herbicidal activity rating, BP (Bidens pilosa)” value (shortened to “herbicidal activity rating, BP”) [9] was 4 (percentage of weeds killed was not less than 60% and less than 80%). For the same molecule, the “herbicidal activity rating, SM (Stellaria media)” value (shortened to “herbicidal activity rating, SM”) [10] was 4 (percentage of weeds killed was not less than 60% and less than 80%) and the “herbicidal activity rating, GA (Galium aparine)” value (“herbicidal activity rating, GA” for short) [11] was 5 (percentage of weeds killed was not less than 80%).
`COc1cc(Oc2cccc(C(F)(F)F)c2)nc(C(=O)NO)c1` [Compound I-96, N-hydroxy-4-methoxy-6-{3-(trifluoromethyl)phenoxy}-2-pyridine carboxamide] was tested, and the “herbicidal activity rating, SN” value [1] was 5 (percentage of weeds killed was not less than 80%), the “herbicidal activity rating, CO” value [2] was 5 (percentage of weeds killed was not less than 80%) and the “herbicidal activity rating, AT (Abutilon theophrasti)” value [3] was 3 (percentage of weeds killed was not less than 40% and less than 60%). For the same molecule, the “herbicidal activity rating, VH” value [4] was 5 (percentage of weeds killed was not less than 80%), the “herbicidal activity rating, SA” value [5] was 5 (percentage of weeds killed was not less than 80%) and the “herbicidal activity rating, CA” value [6] was 3 (percentage of weeds killed was not less than 40% and less than 60%). For the same molecule, the “herbicidal activity rating, MC” value [7] was 1 (percentage of weeds killed was less than 20%), the “herbicidal activity rating, AR” value [8] was 5 (percentage of weeds killed was not less than 80%) and the “herbicidal activity rating, BP” value [9] was 4 (percentage of weeds killed was not less than 60% and less than 80%). The “herbicidal activity rating, SM” value [10] was 5 (percentage of weeds killed was not less than 80%) and the “herbicidal activity rating, GA” value [11] was 5 (percentage of weeds killed was not less than 80%).
`CONC(=O)c1cc(OC)cc(Oc2cccc(C(F)(F)F)c2)n1` [Compound I-97, N-methoxy-4-methoxy-6-{3-(trifluoromethyl)phenoxy}-2-pyridine carboxamide] was tested, and the “herbicidal activity rating, SN” value [1] was 5 (percentage of weeds killed was not less than 80%), the “herbicidal activity rating, CO” value [2] was 5 (percentage of weeds killed was not less than 80%) and the “herbicidal activity rating, AT (Abutilon theophrasti)” value [3] was 5 (percentage of weeds killed was not less than 80%). The “herbicidal activity rating, VH” value [4] was 5 (percentage of weeds killed was not less than 80%), the “herbicidal activity rating, SA” value [5] was 5 (percentage of weeds killed was not less than 80%) and the “herbicidal activity rating, CA” value [6] was 4 (percentage of weeds killed was not less than 60% and less than 80%). For the same molecule, the “herbicidal activity rating, MC” value [7] was 5 (percentage of weeds killed was not less than 80%), the “herbicidal activity rating, AR” value [8] was 5 (percentage of weeds killed was not less than 80%) and the “herbicidal activity rating, BP” value [9] was 5 (percentage of weeds killed was not less than 80%). For the same molecule, the “herbicidal activity rating, SM” value [10] was 5 (percentage of weeds killed was not less than 80%) and the “herbicidal activity rating, GA” value [11] was 5 (percentage of weeds killed was not less than 80%).
In the case of `CCCONC(=O)c1cc(OC)cc(Oc2cccc(C(F)(F)F)c2)n1` [Compound I-99, N-(n-propoxy)-4-methoxy-6-{3-(trifluoromethyl)phenoxy}-2-pyridine carboxamide], the “herbicidal activity rating, SN” value [1] is reported as 5 (percentage of weeds killed was not less than 80%), the “herbicidal activity rating, CO” value [2] is reported as 5 (percentage of weeds killed was not less than 80%) and the “herbicidal activity rating, AT (Abutilon theophrasti)” value [3] is reported as 5 (percentage of weeds killed was not less than 80%). For the same molecule, the “herbicidal activity rating, VH” value [4] was 5 (percentage of weeds killed was not less than 80%), the “herbicidal activity rating, SA” value [5] was 5 (percentage of weeds killed was not less than 80%) and the “herbicidal activity rating, CA” value [6] was 5 (percentage of weeds killed was not less than 80%). For the same molecule, the “herbicidal activity rating, MC” value [7] was 4 (percentage of weeds killed was not less than 60% and less than 80%), the “herbicidal activity rating, AR” value [8] was 5 (percentage of weeds killed was not less than 80%) and the “herbicidal activity rating, BP” value [9] was 5 (percentage of weeds killed was not less than 80%). The “herbicidal activity rating, SM” value [10] was 5 (percentage of weeds killed was not less than 80%) and the “herbicidal activity rating, GA” value [11] was 5 (percentage of weeds killed was not less than 80%).
For `C=CCONC(=O)c1cc(OC)cc(Oc2cccc(C(F)(F)F)c2)n1` [Compound I-100], the “herbicidal activity rating, SN” value [1] was 5 (percentage of weeds killed was not less than 80%), the “herbicidal activity rating, CO” value [2] was 5 (percentage of weeds killed was not less than 80%) and the “herbicidal activity rating, AT (Abutilon theophrasti)” value [3] was 5 (percentage of weeds killed was not less than 80%). The “herbicidal activity rating, VH” value [4] was 5 (percentage of weeds killed was not less than 80%), the “herbicidal activity rating, SA” value [5] was 5 (percentage of weeds killed was not less than 80%) and the “herbicidal activity rating, CA” value [6] was 4 (percentage of weeds killed was not less than 60% and less than 80%). For the same molecule, the “herbicidal activity rating, MC” value [7] was 4 (percentage of weeds killed was not less than 60% and less than 80%), the “herbicidal activity rating, AR” value [8] was 5 (percentage of weeds killed was not less than 80%) and the “herbicidal activity rating, BP” value [9] was 4 (percentage of weeds killed was not less than 60% and less than 80%). The “herbicidal activity rating, SM” value [10] was 4 (percentage of weeds killed was not less than 60% and less than 80%) and the “herbicidal activity rating, GA” value [11] was 5 (percentage of weeds killed was not less than 80%).
In the case of `COc1cc(Oc2cccc(C(F)(F)F)c2)nc(C(=O)NOCCF)c1` [Compound I-102], the “herbicidal activity rating, SN” value [1] is reported as 5 (percentage of weeds killed was not less than 80%), the “herbicidal activity rating, CO” value [2] is reported as 5 (percentage of weeds killed was not less than 80%) and the “herbicidal activity rating, AT (Abutilon theophrasti)” value [3] is reported as 4 (percentage of weeds killed was not less than 60% and less than 80%). For the same molecule, the “herbicidal activity rating, VH” value [4] was 5 (percentage of weeds killed was not less than 80%), the “herbicidal activity rating, SA” value [5] was 5 (percentage of weeds killed was not less than 80%) and the “herbicidal activity rating, CA” value [6] was 4 (percentage of weeds killed was not less than 60% and less than 80%). The “herbicidal activity rating, MC” value [7] was 3 (percentage of weeds killed was not less than 40% and less than 60%), the “herbicidal activity rating, AR” value [8] was 5 (percentage of weeds killed was not less than 80%) and the “herbicidal activity rating, BP” value [9] was 5 (percentage of weeds killed was not less than 80%). For the same molecule, the “herbicidal activity rating, SM” value [10] was 4 (percentage of weeds killed was not less than 60% and less than 80%) and the “herbicidal activity rating, GA” value [11] was 5 (percentage of weeds killed was not less than 80%).
With `CCOCONC(=O)c1cc(OC)cc(Oc2cccc(C(F)(F)F)c2)n1` [Compound I-105] the “herbicidal activity rating, SN” value [1] was 5 (percentage of weeds killed was not less than 80%), the “herbicidal activity rating, CO” value [2] was 5 (percentage of weeds killed was not less than 80%) and the “herbicidal activity rating, AT (Abutilon theophrasti)” value [3] was 4 (percentage of weeds killed was not less than 60% and less than 80%). For the same molecule, the “herbicidal activity rating, VH” value [4] was 5 (percentage of weeds killed was not less than 80%), the “herbicidal activity rating, SA” value [5] was 5 (percentage of weeds killed was not less than 80%) and the “herbicidal activity rating, CA” value [6] was 4 (percentage of weeds killed was not less than 60% and less than 80%). The “herbicidal activity rating, MC” value [7] was 3 (percentage of weeds killed was not less than 40% and less than 60%), the “herbicidal activity rating, AR” value [8] was 5 (percentage of weeds killed was not less than 80%) and the “herbicidal activity rating, BP” value [9] was 4 (percentage of weeds killed was not less than 60% and less than 80%). For the same molecule, the “herbicidal activity rating, SM” value [10] was 4 (percentage of weeds killed was not less than 60% and less than 80%) and the “herbicidal activity rating, GA” value [11] was 5 (percentage of weeds killed was not less than 80%).
For `COc1cc(Oc2cccc(C(F)(F)F)c2)nc(C(=O)NOCC2CC2)c1` [Compound I-107], the “herbicidal activity rating, SN” value [1] was 5 (percentage of weeds killed was not less than 80%), the “herbicidal activity rating, CO” value [2] was 5 (percentage of weeds killed was not less than 80%) and the “herbicidal activity rating, AT (Abutilon theophrasti)” value [3] was 4 (percentage of weeds killed was not less than 60% and less than 80%). For the same molecule, the “herbicidal activity rating, VH” value [4] was 5 (percentage of weeds killed was not less than 80%), the “herbicidal activity rating, SA” value [5] was 5 (percentage of weeds killed was not less than 80%) and the “herbicidal activity rating, CA” value [6] was 4 (percentage of weeds killed was not less than 60% and less than 80%). The “herbicidal activity rating, MC” value [7] was 3 (percentage of weeds killed was not less than 40% and less than 60%), the “herbicidal activity rating, AR” value [8] was 5 (percentage of weeds killed was not less than 80%) and the “herbicidal activity rating, BP” value [9] was 3 (percentage of weeds killed was not less than 40% and less than 60%). For the same molecule, the “herbicidal activity rating, SM” value [10] was 5 (percentage of weeds killed was not less than 80%) and the “herbicidal activity rating, GA” value [11] was 5 (percentage of weeds killed was not less than 80%).
